The numbers were not newly measured in patent publication US6235268A, “Antiplaque oral composition and method” (Colgate-Palmolive Company, priority 2000, dated 2001), which cites them from elsewhere.

In the data set the test system is rats. To be noted: Merck Index, Eleventh Ed., 1989.

Take `COc1ccc(C(=O)c2ccccc2)c(O)c1` [2-hydroxy-4-methoxybenzophenone]: the “LD-50 (oral/rats)” value was 12800 mg/kg.
